This note sets out measurements from patent publication US10519152B2, “Compounds and their use in treating cancer” (AstraZeneca AB, priority 2017, dated 2019).

The target of this test is T1, Estrogen Receptor (ERα) in MCF-7 human ductal carcinoma breast cell line (Homo sapiens, UniProt P03372).
T1 construct: endogenous in cells; host or cells: MCF-7
T1 sequence (P03372 1-595): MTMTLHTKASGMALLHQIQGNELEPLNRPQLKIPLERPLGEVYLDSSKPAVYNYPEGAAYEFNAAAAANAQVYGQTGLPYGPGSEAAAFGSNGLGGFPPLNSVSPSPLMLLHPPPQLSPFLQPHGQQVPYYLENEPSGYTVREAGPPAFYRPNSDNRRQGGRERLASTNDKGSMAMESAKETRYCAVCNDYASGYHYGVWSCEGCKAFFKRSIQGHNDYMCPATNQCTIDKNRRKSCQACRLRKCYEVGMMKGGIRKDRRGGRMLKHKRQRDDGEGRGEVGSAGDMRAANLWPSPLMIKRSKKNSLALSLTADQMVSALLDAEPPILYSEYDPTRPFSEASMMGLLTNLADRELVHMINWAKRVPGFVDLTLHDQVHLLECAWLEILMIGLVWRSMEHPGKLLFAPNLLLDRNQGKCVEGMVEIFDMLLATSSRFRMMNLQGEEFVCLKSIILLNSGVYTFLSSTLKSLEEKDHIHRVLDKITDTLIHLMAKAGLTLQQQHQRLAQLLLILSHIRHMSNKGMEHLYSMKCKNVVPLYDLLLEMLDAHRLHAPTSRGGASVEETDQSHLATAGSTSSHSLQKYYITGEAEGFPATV
The test can be described thus: MCF-7 ER degradation assay (cell based immuno-fluorescence). As to conditions: MCF-7 cells; for ER degradation ≥ 90% at 0.3 μM: ER degradation by fulvestrant at 0.3 μM is defined as 100%; for DC50: 18-22 hours incubation, 50% reduction of ERα expression, single experiment or average of two or more, read-out: MCF-7 ER degradation IC50. In a few lines:
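MCF-7 human ductal carcinoma breast cells were seeded at 3.75×10^4 cells per mL (40 μL per well) in 384 well plates with phenol red free DMEM containing 2 mM L-Glutamine and 5% (v/v) Charcoal/Dextran treated foetal calf serum. After overnight culture, compounds were acoustically dispensed, incubated 18-22 hours, then cells were formaldehyde-fixed and immunostained for ERα.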

`Cc1ncsc1-c1ccc(CNC(=O)[C@@H]2C[C@@H](O)CN2C(=O)[C@@H](NC(=O)COCC(F)(F)COCCCOc2cc(F)c([C@@H]3c4[nH]c5ccccc5c4C[C@@H](C)N3CC(C)(C)F)c(F)c2)C(C)(C)C)cc1` [Example 125, (2S,4R)-1-((S)-2-(2-(3-(3-(3,5-Difluoro-4-((1R,3R)-2-(2-fluoro-2-methylpropyl)-3-methyl-2,3,4,9-tetrahydro-1H-pyrido[3,4-b]indol-1-yl)phenoxy)propoxy)-2,2-difluoropropoxy)acetamido)-3,3-dimethylbutanoyl)-4-hydroxy-N-(4-(4-methylthiazol-5-yl)benzyl)pyrrolidine-2-carboxamide]: the “ER degradation ≥ 90% at 0.3 μM” value is “••” and the DC50 amounted to 0.7 nM.

For the molecule `Cc1ncsc1-c1ccc(CNC(=O)[C@@H]2C[C@@H](O)CN2C(=O)[C@@H](NC(=O)CCCOc2cccc(COc3cc(F)c([C@@H]4c5[nH]c6ccccc6c5C[C@@H](C)N4CC(C)(C)F)c(F)c3)n2)C(C)(C)C)cc1` [Example 162, (2S,4R)-1-((S)-2-(4-((6-((3,5-Difluoro-4-((1R,3R)-2-(2-fluoro-2-methylpropyl)-3-methyl-2,3,4,9-tetrahydro-1H-pyrido[3,4-b]indol-1-yl)phenoxy)methyl)pyridin-2-yl)oxy)butanamido)-3,3-dimethylbutanoyl)-4-hydroxy-N-(4-(4-methylthiazol-5-yl)benzyl)pyrrolidine-2-carboxamide], the “ER degradation ≥ 90% at 0.3 μM” value was “•” and the DC50 is 1.8 nM.

Take `Cc1ncsc1-c1ccc(CNC(=O)[C@@H]2C[C@@H](O)CN2C(=O)[C@@H](NC(=O)COCCCCCOc2ccc([C@@H]3c4[nH]c5ccccc5c4C[C@@H](C)N3CC(F)F)nc2)C(C)(C)C)cc1` [Example 17, (2S,4R)-1-((S)-2-(2-((5-((6-((1S,3R)-2-(2,2-Difluoroethyl)-3-methyl-2,3,4,9-tetrahydro-1H-pyrido[3,4-b]indol-1-yl)pyridin-3-yl)oxy)pentyl)oxy)acetamido)-3,3-dimethylbutanoyl)-4-hydroxy-N-(4-(4-methylthiazol-5-yl)benzyl)pyrrolidine-2-carboxamide]: the “ER degradation ≥ 90% at 0.3 μM” value is recorded as “•” and the DC50 is 41 nM.

On to `Cc1ncsc1-c1ccc(CNC(=O)[C@@H]2C[C@@H](OC(=O)[C@@H]3CCCN3)CN2C(=O)[C@@H](NC(=O)CCCCCCCCCCOc2cc(F)c([C@@H]3c4[nH]c5ccccc5c4C[C@@H](C)N3CC(C)(C)F)c(F)c2)C(C)(C)C)cc1` [Example 33, (3R,5S)-1-((S)-2-(11-(3,5-Difluoro-4-((1R,3R)-2-(2-fluoro-2-methylpropyl)-3-methyl-2,3,4,9-tetrahydro-1H-pyrido[3,4-b]indol-1-yl)phenoxy)undecanamido)-3,3-dimethylbutanoyl)-5-((4-(4-methylthiazol-5-yl)benzyl)carbamoyl)pyrrolidin-3-yl L-prolinate], for which the “ER degradation ≥ 90% at 0.3 μM” value was “••” and the DC50 was found to be 29 nM.

Turning to `Cc1ncsc1-c1ccc(CNC(=O)[C@@H]2C[C@@H](O)CN2C(=O)[C@@H](NC(=O)COCCOCCOCCOCCOCCOCC(=O)Nc2ccc([C@@H]3c4[nH]c5ccccc5c4C[C@@H](C)N3CC(C)(C)F)cc2)C(C)(C)C)cc1` [Example 54, N^1-(4-((1R,3R)-2-(2-fluoro-2-methylpropyl)-3-methyl-2,3,4,9-tetrahydro-1H-pyrido[3,4-b]indol-1-yl)phenyl)-N^18—((S)-1-((2S,4R)-4-hydroxy-2-(4-(4-methylthiazol-5-yl)benzylcarbamoyl)pyrrolidin-1-yl)-3,3-dimethyl-1-oxobutan-2-yl)-2,5,8,11,14,17-hexaoxaoctadecane-1,18-dicarboxamide, Trifluoroacetic Acid], the “ER degradation ≥ 90% at 0.3 μM” value was “••” and the DC50 came out at 1.7 nM.

For `Cc1ncsc1-c1ccc(CNC(=O)[C@@H]2C[C@@H](O)CN2C(=O)[C@@H](NC(=O)CNCCC(F)(F)CCOc2cc(F)c([C@@H]3c4[nH]c5ccccc5c4C[C@@H](C)N3CC(C)(C)F)c(F)c2)C(C)(C)C)cc1` [Example 131, (2S,4R)-1-((S)-2-(2-((5-(3,5-Difluoro-4-((1R,3R)-2-(2-fluoro-2-methylpropyl)-3-methyl-2,3,4,9-tetrahydro-1H-pyrido[3,4-b]indol-1-yl)phenoxy)-3,3-difluoropentyl)amino)acetamido)-3,3-dimethylbutanoyl)-4-hydroxy-N-(4-(4-methylthiazol-5-yl)benzyl)pyrrolidine-2-carboxamide], the “ER degradation ≥ 90% at 0.3 μM” value is reported as “•” and the DC50 was 0.8 nM.

As to `Cc1ncsc1-c1ccc(CNC(=O)[C@@H]2C[C@@H](O)CN2C(=O)[C@@H](NC(=O)COCc2ccnc(COc3cc(F)c([C@@H]4c5[nH]c6ccccc6c5C[C@@H](C)N4CC(C)(C)F)c(F)c3)c2)C(C)(C)C)cc1` [Example 134, (2S,4R)-1-((S)-2-(2-((2-((3,5-Difluoro-4-((1R,3R)-2-(2-fluoro-2-methylpropyl)-3-methyl-2,3,4,9-tetrahydro-1H-pyrido[3,4-b]indol-1-yl)phenoxy)methyl)pyridin-4-yl)methoxy)acetamido)-3,3-dimethylbutanoyl)-4-hydroxy-N-(4-(4-methylthiazol-5-yl)benzyl)pyrrolidine-2-carboxamide], the “ER degradation ≥ 90% at 0.3 μM” value is on record as “•” and the DC50 was 0.5 nM.

Take `Cc1ncsc1-c1ccc(CNC(=O)[C@@H]2C[C@@H](O)CN2C(=O)[C@@H](NC(=O)COCCOCCCCCOc2cc(F)c([C@@H]3c4[nH]c5ccccc5c4C[C@@H](C)N3CC(F)(F)F)c(F)c2)C(C)(C)C)cc1` [Example 139, (2S,4R)-1-((S)-2-(2-(2-((5-(3,5-Difluoro-4-((1R,3R)-3-methyl-2-(2,2,2-trifluoroethyl)-2,3,4,9-tetrahydro-1H-pyrido[3,4-b]indol-1-yl)phenoxy)pentyl)oxy)ethoxy)acetamido)-3,3-dimethylbutanoyl)-4-hydroxy-N-(4-(4-methylthiazol-5-yl)benzyl)pyrrolidine-2-carboxamide]: the “ER degradation ≥ 90% at 0.3 μM” value is given as “••” and the DC50 stood at 1.1 nM.

Take `Cc1ncsc1-c1ccc(CNC(=O)[C@@H]2C[C@@H](O)CN2C(=O)[C@@H](NC(=O)COCCCCCCOc2cc(F)c([C@@H]3c4[nH]c5ccccc5c4C[C@@H](C)N3CC(C)(C)F)c(F)c2)C(C)(C)C)cc1` [Example 51, (2S,4R)-1-((S)-2-(2-((6-(3,5-difluoro-4-((1R,3R)-2-(2-fluoro-2-methylpropyl)-3-methyl-2,3,4,9-tetrahydro-1H-pyrido[3,4-b]indol-1-yl)phenoxy)hexyl)oxy)acetamido)-3,3-dimethylbutanoyl)-4-hydroxy-N-(4-(4-methylthiazol-5-yl)benzyl)pyrrolidine-2-carboxamide]: the “ER degradation ≥ 90% at 0.3 μM” value was “•” and the DC50 stood at 6.8 nM.

Consider `Cc1ncsc1-c1ccc(CNC(=O)[C@@H]2C[C@@H](O)CN2C(=O)[C@@H](NC(=O)COCc2cccc(COc3cc(F)c([C@@H]4c5[nH]c6ccccc6c5C[C@@H](C)N4CC(C)(C)F)c(F)c3)n2)C(C)(C)C)cc1` [Example 132, (2S,4R)-1-((S)-2-(2-((6-((3,5-Difluoro-4-((1R,3R)-2-(2-fluoro-2-methylpropyl)-3-methyl-2,3,4,9-tetrahydro-1H-pyrido[3,4-b]indol-1-yl)phenoxy)methyl)pyridin-2-yl)methoxy)acetamido)-3,3-dimethylbutanoyl)-4-hydroxy-N-(4-(4-methylthiazol-5-yl)benzyl)pyrrolidine-2-carboxamide], for which the “ER degradation ≥ 90% at 0.3 μM” value is “•” and the DC50 amounted to 0.6 nM.

As to `Cc1ncsc1-c1ccc(CNC(=O)[C@@H]2C[C@@H](O)CN2C(=O)[C@@H](NC(=O)COCCCOCCCCCOc2cc(F)c([C@@H]3c4[nH]c5ccccc5c4C[C@@H](C)N3CC(C)(C)F)c(F)c2)C(C)(C)C)cc1` [Example 138, (2S,4R)-1-((S)-2-(2-(3-((5-(3,5-Difluoro-4-((R,3R)-2-(2-fluoro-2-methylpropyl)-3-methyl-2,3,4,9-tetrahydro-1H-pyrido[3,4-b]indol-1-yl)phenoxy)pentyl)oxy)propoxy)acetamido)-3,3-dimethylbutanoyl)-4-hydroxy-N-(4-(4-methylthiazol-5-yl)benzyl)pyrrolidine-2-carboxamide], the “ER degradation ≥ 90% at 0.3 μM” value is “••” and the DC50 turned out to be 1.1 nM.

As to `Cc1ncsc1-c1ccc(CNC(=O)[C@@H]2C[C@@H](O)CN2C(=O)[C@@H](NC(=O)COCCCCCCCOc2cc(F)c([C@@H]3c4[nH]c5ccccc5c4C[C@@H](C)N3CC(C)(C)F)c(F)c2)C(C)(C)C)cc1` [Example 7, (2S,4R)-1-((S)-2-(2-((7-(3,5-Difluoro-4-((1R,3R)-2-(2-fluoro-2-methylpropyl)-3-methyl-2,3,4,9-tetrahydro-1H-pyrido[3,4-b]indol-1-yl)phenoxy)heptyl)oxy)acetamido)-3,3-dimethylbutanoyl)-4-hydroxy-N-(4-(4-methylthiazol-5-yl)benzyl)pyrrolidine-2-carboxamide], the “ER degradation ≥ 90% at 0.3 μM” value is “••” and the DC50 was 1.6 nM.
